From ChEMBL document CHEMBL3988442, “University of Dundee, Small-Polar-MMV Screening Library” (2021)
Several values for one entry are separate records, joined by “and”; a condition that tells them apart may be missing. Identical values can stand only once.

Assays:
[1] = microbe, parasite or virus in culture; details: Mycobacterium tuberculosis, 96 h, read-out: pIC50 (converted)
[2] = tested on: Mycobacterium tuberculosis; test: Cornell M. t heat shock assay; format: functional, organism-based; details: for IC50: Mycobacterium tuberculosis
[3] = microbe, parasite or virus in culture; details: Mycobacterium tuberculosis, 72 h, read-out: pIC50 (converted)
[4] = tested on: Leishmania donovani; test: Leishmania intramacrophage assay; format: functional, organism-based; details: for IC50: Leishmania donovani
[5] = In vitro enzyme assay to detect hydrolysis of chlorophenol red-beta-D-[…] directly proportional to the number of Toxoplasma stably expressing beta-galactosidase; format: functional, organism-based, Toxoplasma gondii; details: for IC50: Toxoplasma gondii
[6] = target: ClpP1P2 (Mycobacterium tuberculosis (strain ATCC 25618 / H37Rv), UniProt P9WPC3+P9WPC5); test: in vitro assay to detect presence of AMC directly proportional to the activity of ClpP1P2. GHDDI collaboration.; format: functional
ClpP1P2, sequence (P9WPC5 whole entry): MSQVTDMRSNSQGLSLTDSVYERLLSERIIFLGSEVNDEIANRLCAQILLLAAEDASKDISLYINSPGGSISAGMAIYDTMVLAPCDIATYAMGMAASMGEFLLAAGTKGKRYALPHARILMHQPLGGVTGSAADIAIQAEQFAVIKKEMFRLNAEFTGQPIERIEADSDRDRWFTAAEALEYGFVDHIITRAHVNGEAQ
ClpP1P2, sequence (P9WPC3 whole entry): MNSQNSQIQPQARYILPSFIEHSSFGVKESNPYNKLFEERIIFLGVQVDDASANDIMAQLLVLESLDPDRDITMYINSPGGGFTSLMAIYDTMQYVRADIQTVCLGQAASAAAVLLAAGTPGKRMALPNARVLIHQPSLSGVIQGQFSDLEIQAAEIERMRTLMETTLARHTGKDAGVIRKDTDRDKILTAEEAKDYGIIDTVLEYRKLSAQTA

[7] = tested on: Plasmodium falciparum; test: Calibr Malaria Delayed Death Assay SOP; format: functional, organism-based; details: for IC50: Plasmodium falciparum
[8] = target: Tryptophan--tRNA ligase (Mycobacterium tuberculosis (strain ATCC 25618 / H37Rv), UniProt P9WFT3); test: Biochemical assay for Mt-TrpRS; format: functional
Tryptophan--tRNA ligase, sequence (P9WFT3 whole entry): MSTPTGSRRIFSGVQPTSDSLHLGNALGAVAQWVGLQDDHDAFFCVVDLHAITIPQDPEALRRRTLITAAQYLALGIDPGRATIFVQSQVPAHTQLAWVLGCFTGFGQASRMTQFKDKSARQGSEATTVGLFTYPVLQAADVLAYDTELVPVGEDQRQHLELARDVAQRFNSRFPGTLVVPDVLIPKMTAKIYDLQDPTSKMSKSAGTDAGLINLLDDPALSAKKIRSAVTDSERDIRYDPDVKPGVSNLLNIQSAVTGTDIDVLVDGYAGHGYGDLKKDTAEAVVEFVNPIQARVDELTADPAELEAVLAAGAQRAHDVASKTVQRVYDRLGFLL

Compound	IC50 [1] [µM]	IC50 [2] [µM]	IC50 [3] [µM]	further results
O=C(NCCc1cccc(F)c1)C1(n2cnnn2)CCCCC1	43.2	11.1	46.9	–
Cc1cc(=O)[nH]c(-n2nc(C3CC3)cc2N)n1	41.2	27.5	30.1	pIC50 [4]: < 4.3 and 4.677
Cc1cc(C(=O)N2CCN(c3nc4c(C(C)C)cccc4s3)CC2)no1	42.6	57.9	> 50.1	–
Cc1nc(-n2nc(C3CC3)cc2NC(=O)C(C)C)[nH]c(=O)c1C	14.2	7.58	10.2	pIC50 [5]: 5.686; IC50 [5]: 3.09 µM
Cc1ccc(S(=O)(=O)NCCc2ccoc2)s1	46.2	31	38	–
CCN(CC)c1nc(Nc2cccc(C(C)O)c2)nc2ccccc12 (stereo unspecified)	22.9	12.2	25.7	pIC50 [5]: 5.586; IC50 [5]: 2.08 µM; IC50 [6]: > 100 µM
Cc1cc2c(cc1Cl)C=CC1(CCN(CC(=O)NC3CCCC3)CC1)O2	> 50.1	49.9	45.4	–
CN[C@@H]1CCC[C@@H](Oc2ccccc2Oc2ccc(C)cc2)[C@@H]1O	> 50.1	89.2	35.8	pIC50 [7]: 6.476; IC50 [7]: 0.349 µM; pIC50 [2]: 4.304; pIC50 [4]: 5.128; IC50 [4]: 5.46 µM
c1cnc(N2CCC(c3csc(Nc4cnccn4)n3)CC2)nc1	–	> 100	–	IC50 [7]: 0.0108 µM
Fc1ccccc1CN1CCC[C@@H](Cn2nnc(-c3cccs3)n2)C1	33.3	> 100	16.9	–
Oc1cc(C2CCCCN2Cc2cccs2)nc(-c2ccccn2)n1 (stereo unspecified)	–	17.3	–	IC50 [5]: 2.42 µM
CC(C)C[C@H](N)COc1cccc(F)c1Oc1cccc(Cl)c1	22.6	13.9	18.5	IC50 [6]: > 100 µM
CC(C)C[C@H](N)COc1cccc(F)c1Oc1ccc(Cl)cc1	21	20.5	17.6	–
Cc1ccc(Oc2c(F)cccc2OC[C@@H](N)CC(C)C)cc1	25.5	25.1	23.4	pIC50 [4]: 5.171; IC50 [4]: 12.4 µM
COc1cccc(OC)c1CNC(Cc1ccsc1)c1ccc(C)cn1 (stereo unspecified)	12.5	27	16.4	pIC50 [7]: 5.969; IC50 [7]: 1.09 µM
Fc1cccc(Nc2nc(N3CCCC3)nc3c2CNCC3)c1	18.8	25.8	23.6	pIC50 [4]: 5.271; IC50 [4]: 3.49 µM
COc1ccc(CNC(Cc2ccsc2)c2ccc(C)cn2)c(OC)c1 (stereo unspecified)	> 50.1	17.9	48.5	–
CCn1ccc(-c2cc(NCCCOc3cccc(C)c3)nc(C)n2)n1	18.9	55.1	30.2	pIC50 [2]: 4.417

Compound	IC50 [1] [µM]	IC50 [2] [µM]	IC50 [3] [µM]	further results
CN(C)CCN(C)C(=O)Cn1cccc2cc(-c3ccc(F)cc3)nc1-2	–	42.9	–	pIC50 [7]: 6.323; IC50 [7]: 0.489 µM; pIC50 [2]: 4.438; pIC50 [4]: 4.872; IC50 [4]: 9.3 µM; IC50 [6]: > 100 µM
COc1cccc(CNCc2nc3ccccc3c(=O)[nH]2)c1	–	67.4	–	IC50 [8]: > 195 µM
CS(=O)(=O)N[C@@H]1CN(C(=O)c2cc3ccccc3s2)C[C@H]1O	> 50.1	24.6	25.4	pIC50 [2]: 4.54; IC50 [8]: > 195 µM
Nc1cc(N2CCOCC(Cc3ccc4[nH]ccc4c3)C2)ncn1 (stereo unspecified)	13.4	–	28.8	pIC50 [2]: < 4 and < 4.31
CN1CCCCC1c1ncc2c(n1)CCN(CCCc1ccccc1)C2 (stereo unspecified)	41.2	39.4	44.5	pIC50 [2]: 4.46
CN1CCCCC1c1ncc2c(n1)CCN(Cc1ccc(Cl)c(F)c1)C2 (stereo unspecified)	–	50.6	–	pIC50 [7]: 5.794; IC50 [7]: 1.55 µM; pIC50 [2]: 4.295
Cn1c(CCN2CCN(c3ccc(O)cc3)CC2)nc2ccccc21	–	68.5	–	pIC50 [5]: 4.61; IC50 [5]: 23.8 µM
CCSCCNc1cc(C)nc2c(C)c(C)nn12	7.02	23.5	5.48	–
CC1(c2ccccc2)CCCN(Cc2cncn2C2CCCC2)C1 (stereo unspecified)	18.5	14.4	20.4	IC50 [5]: 4.15 µM
CC(C)Cc1ncc2c(n1)CN(c1nccc(NC(C)C)n1)C2	15.5	34.5	23.9	–
O[C@@H]1CN(CC2=Cc3cc(Cl)ccc3OC2)CC[C@H]1N1CCCCCC1	46.9	52.7	49.3	–
COc1cccc(S(=O)(=O)NC(=O)CCC2CCCC2)c1	–	> 100	–	–
Cc1noc(NC(=O)c2cccc(Br)c2)n1	41.8	16	46.3	pIC50 [2]: 4.54
CCOc1ncccc1NC(=O)N1CCN(c2ccc(O)cc2)CC1	–	> 100	–	–
Cc1ccc(C(C)N(C)Cc2nc3c(cnn3C)c(=O)[nH]2)s1 (stereo unspecified)	–	> 100	–	–
COc1ccccc1C(C)N(C)Cc1nc2c(cnn2C)c(=O)[nH]1 (stereo unspecified)	–	> 100	–	–
Cc1ccc(C2CCCN2S(=O)(=O)N(C)CCc2ccccn2)o1 (stereo unspecified)	–	> 100	–	–
